Results taken from PubChem BioAssay AID2060895 (Molecular Pharmacology Branch, DTP, NCI, 2025).

Test system: PDC 899932-113-R3-J6 complex spheroid viability
Assay: Anticancer human tumor 899932-113-R3-J6-PDC patient-derived melanoma cell line growth inhibition [RAS]
Settings: for IC50: curve of first compound; for viability, T/C: stronger effect = lower value; active = viability on the fitted dose curve at most 10% of control; inactive = the rest
Summary of the method: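 Multi-cell-type spheroids: tumor cells plus HUVEC endothelial cells and mesenchymal stem cells. RAS-pathway inhibitors were combined with targeted agents, each dosed in half-log steps down from clinical Cmax, or from 10 microM when Cmax was unknown.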

[1] = second compound 0.00316 µM, first compound 0.0316 µM
[2] = second compound 0.00316 µM, first compound 0.1 µM
[3] = second compound 0.00316 µM, first compound 0.316 µM
[4] = second compound 0.00316 µM, first compound 1 µM
[5] = second compound 0.00316 µM, first compound 3.16 µM
[6] = second compound 0.00316 µM, first compound 10 µM
[7] = second compound 0.01 µM, first compound 0.0316 µM
[8] = second compound 0.01 µM, first compound 0.1 µM
[9] = second compound 0.01 µM, first compound 0.316 µM
[10] = second compound 0.01 µM, first compound 1 µM
[11] = second compound 0.01 µM, first compound 3.16 µM
[12] = second compound 0.01 µM, first compound 10 µM
[13] = second compound 0.0316 µM, first compound 0.0316 µM
[14] = second compound 0.0316 µM, first compound 0.1 µM
[15] = second compound 0.0316 µM, first compound 0.316 µM
[16] = second compound 0.0316 µM, first compound 1 µM
[17] = second compound 0.0316 µM, first compound 3.16 µM
[18] = second compound 0.0316 µM, first compound 10 µM
[19] = second compound 0.1 µM, first compound 0.0316 µM
[20] = second compound 0.1 µM, first compound 0.1 µM
[21] = second compound 0.1 µM, first compound 0.316 µM
[22] = second compound 0.1 µM, first compound 1 µM
[23] = second compound 0.1 µM, first compound 3.16 µM
[24] = second compound 0.1 µM, first compound 10 µM
[25] = second compound 0.316 µM, first compound 0.0316 µM
[26] = second compound 0.316 µM, first compound 0.1 µM
[27] = second compound 0.316 µM, first compound 0.316 µM
[28] = second compound 0.316 µM, first compound 1 µM
[29] = second compound 0.316 µM, first compound 3.16 µM
[30] = second compound 0.316 µM, first compound 10 µM
[31] = second compound 1 µM, first compound 0.0316 µM
[32] = second compound 1 µM, first compound 0.1 µM
[33] = second compound 1 µM, first compound 0.316 µM
[34] = second compound 1 µM, first compound 1 µM
[35] = second compound 1 µM, first compound 3.16 µM
[36] = second compound 1 µM, first compound 10 µM
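For viability, T/C in this document: spheroids exposed to agents for seven days before readout; 100% = DMSO vehicle control wells.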

CC1(O)CCCC1n1c(=O)c(C(F)F)cc2cnc(NC3CCN(S(C)(=O)=O)CC3)nc21 (stereo not given) + C=CC(=O)N1CCN(c2nc(OCC3CCCN3C)nc3c(F)c(-c4nc(N)cc(C)c4C(F)(F)F)c(Cl)cc23)C(C)C1
4.02 µM: IC50 (second compound 0.01 µM)
3.3 µM: IC50 (second compound 1 µM)
1.82 µM: IC50 (second compound 0.1 µM)
1.84 µM: IC50 (second compound 0.00316 µM)
inactive: viability, T/C [1] 99% | viability, T/C [2] 73.6% | viability, T/C [3] 62% | viability, T/C [4] 63.5% | viability, T/C [5] 57.3% | viability, T/C [6] 21.4% | viability, T/C [7] 92% | viability, T/C [8] 81.3% | viability, T/C [9] 71.1% | viability, T/C [10] 69.1% | viability, T/C [11] 64.5% | viability, T/C [12] 19.5% | viability, T/C [13] 94% | viability, T/C [14] 88.2% | viability, T/C [15] 65.8% | viability, T/C [16] 66.2% | viability, T/C [17] 53.1% | viability, T/C [18] 19.2% | viability, T/C [19] 96.2% | viability, T/C [20] 80.4% | viability, T/C [21] 62.2% | viability, T/C [22] 62.7% | viability, T/C [23] 54.5% | viability, T/C [24] 21.5% | viability, T/C [25] 94.7% | viability, T/C [26] 80.1% | viability, T/C [27] 65% | viability, T/C [28] 67.8% | viability, T/C [29] 60% | viability, T/C [30] 17.3% | viability, T/C [31] 88.5% | viability, T/C [32] 81.2% | viability, T/C [33] 63.7% | viability, T/C [34] 62% | viability, T/C [35] 62% | viability, T/C [36] 14%
2.48 µM: IC50 (second compound 0.0316 µM)
3.29 µM: IC50 (second compound 0.316 µM)

CCC(CC)c1cc(NC2CCC(N)C2)n2nccc2n1 (stereo not given) + C=CC(=O)N1CCN(c2nc(OCC3CCCN3C)nc3c(F)c(-c4nc(N)cc(C)c4C(F)(F)F)c(Cl)cc23)C(C)C1
inactive: viability, T/C [1] 101% | viability, T/C [2] 96.1% | viability, T/C [3] 105% | viability, T/C [4] 79.9% | viability, T/C [7] 107% | viability, T/C [8] 98.1% | viability, T/C [9] 98.1% | viability, T/C [10] 93.9% | viability, T/C [13] 116% | viability, T/C [14] 105% | viability, T/C [15] 99% | viability, T/C [16] 90% | viability, T/C [19] 106% | viability, T/C [20] 111% | viability, T/C [21] 94.1% | viability, T/C [22] 94.1% | viability, T/C [25] 96% | viability, T/C [26] 99.3% | viability, T/C [27] 102% | viability, T/C [28] 93.9% | viability, T/C [31] 109% | viability, T/C [32] 103% | viability, T/C [33] 98.2% | viability, T/C [34] 84.8%
1.73 µM: IC50 (second compound 0.1 µM)
1.68 µM: IC50 (second compound 0.0316 µM)
1.54 µM: IC50 (second compound 0.00316 µM)
1.72 µM: IC50 (second compound 0.01 µM) | IC50 (second compound 0.316 µM)
active: viability, T/C [5] 0.74% | viability, T/C [6] 0.24% | viability, T/C [11] 0.74% | viability, T/C [12] 0.62% | viability, T/C [17] 0.75% | viability, T/C [18] 0.23% | viability, T/C [23] 0.78% | viability, T/C [24] 1.07% | viability, T/C [29] 0.72% | viability, T/C [30] 0.84% | viability, T/C [35] 0.86% | viability, T/C [36] 0.27%
1.61 µM: IC50 (second compound 1 µM)

Cc1nc(N2CCC3(CC2)COC(C)C3N)c(CO)nc1Sc1ccnc(N)c1Cl (stereo not given) + C=CC(=O)N1CCN(c2nc(OCC3CCCN3C)nc3c(F)c(-c4nc(N)cc(C)c4C(F)(F)F)c(Cl)cc23)C(C)C1
inactive: viability, T/C [1] 110% | viability, T/C [2] 96.4% | viability, T/C [3] 102% | viability, T/C [4] 108% | viability, T/C [5] 115% | viability, T/C [6] 127% | viability, T/C [7] 106% | viability, T/C [8] 109% | viability, T/C [9] 113% | viability, T/C [10] 107% | viability, T/C [11] 119% | viability, T/C [12] 118% | viability, T/C [13] 99.7% | viability, T/C [14] 98.5% | viability, T/C [15] 117% | viability, T/C [16] 108% | viability, T/C [17] 120% | viability, T/C [18] 126% | viability, T/C [19] 99.5% | viability, T/C [20] 108% | viability, T/C [21] 107% | viability, T/C [22] 113% | viability, T/C [23] 120% | viability, T/C [24] 124% | viability, T/C [25] 126% | viability, T/C [26] 111% | viability, T/C [27] 108% | viability, T/C [28] 106% | viability, T/C [29] 108% | viability, T/C [30] 110% | viability, T/C [31] 113% | viability, T/C [32] 106% | viability, T/C [33] 114% | viability, T/C [34] 116% | viability, T/C [35] 110% | viability, T/C [36] 114%
> 10 µM: IC50 (second compound 0.00316 µM) | IC50 (second compound 0.01 µM) | IC50 (second compound 0.0316 µM) | IC50 (second compound 0.1 µM) | IC50 (second compound 0.316 µM) | IC50 (second compound 1 µM)

NC1c2ccccc2OC12CCN(c1cnc3c(N4CCCc5ncccc54)n[nH]c3n1)CC2 (stereo not given) + C=CC(=O)N1CCN(c2nc(OCC3CCCN3C)nc3c(F)c(-c4nc(N)cc(C)c4C(F)(F)F)c(Cl)cc23)C(C)C1
> 10 µM: IC50 (second compound 0.00316 µM) | IC50 (second compound 0.01 µM) | IC50 (second compound 0.0316 µM) | IC50 (second compound 0.1 µM) | IC50 (second compound 0.316 µM) | IC50 (second compound 1 µM)
inactive: viability, T/C [1] 113% | viability, T/C [2] 107% | viability, T/C [3] 114% | viability, T/C [4] 113% | viability, T/C [5] 108% | viability, T/C [6] 89.9% | viability, T/C [7] 108% | viability, T/C [8] 104% | viability, T/C [9] 115% | viability, T/C [10] 102% | viability, T/C [11] 115% | viability, T/C [12] 106% | viability, T/C [13] 116% | viability, T/C [14] 107% | viability, T/C [15] 115% | viability, T/C [16] 125% | viability, T/C [17] 121% | viability, T/C [18] 99.7% | viability, T/C [19] 107% | viability, T/C [20] 106% | viability, T/C [21] 114% | viability, T/C [22] 114% | viability, T/C [23] 102% | viability, T/C [24] 104% | viability, T/C [25] 110% | viability, T/C [26] 116% | viability, T/C [27] 112% | viability, T/C [28] 111% | viability, T/C [29] 115% | viability, T/C [30] 97.1% | viability, T/C [31] 114% | viability, T/C [32] 105% | viability, T/C [33] 119% | viability, T/C [34] 113% | viability, T/C [35] 112% | viability, T/C [36] 86.1%

Nc1ccn(C2OC(CO)C(O)C2(F)F)c(=O)n1 (stereo not given) + C=CC(=O)N1CCN(c2nc(OCC3CCCN3C)nc3c(F)c(-c4nc(N)cc(C)c4C(F)(F)F)c(Cl)cc23)C(C)C1
0.0191 µM: IC50 (second compound 0.316 µM)
0.0212 µM: IC50 (second compound 0.0316 µM)
0.0194 µM: IC50 (second compound 0.00316 µM)
inactive: viability, T/C (second compound 0.00316 µM, first compound 0.00316 µM) 98.2% | viability, T/C (second compound 0.00316 µM, first compound 0.01 µM) 68.9% | viability, T/C [1] 37.3% | viability, T/C [2] 20.8% | viability, T/C [3] 23.6% | viability, T/C [4] 25.7% | viability, T/C (second compound 0.01 µM, first compound 0.00316 µM) 97.5% | viability, T/C (second compound 0.01 µM, first compound 0.01 µM) 73.5% | viability, T/C [7] 32.8% | viability, T/C [8] 20% | viability, T/C [9] 24.9% | viability, T/C [10] 22.6% | viability, T/C (second compound 0.0316 µM, first compound 0.00316 µM) 99.3% | viability, T/C (second compound 0.0316 µM, first compound 0.01 µM) 74.4% | viability, T/C [13] 38.5% | viability, T/C [14] 18.3% | viability, T/C [15] 20.9% | viability, T/C [16] 24% | viability, T/C (second compound 0.1 µM, first compound 0.00316 µM) 106% | viability, T/C (second compound 0.1 µM, first compound 0.01 µM) 86% | viability, T/C [19] 34% | viability, T/C [20] 23.8% | viability, T/C [21] 21.7% | viability, T/C [22] 23.2% | viability, T/C (second compound 0.316 µM, first compound 0.00316 µM) 98.9% | viability, T/C (second compound 0.316 µM, first compound 0.01 µM) 73% | viability, T/C [25] 32.4% | viability, T/C [26] 22.6% | viability, T/C [27] 24.1% | viability, T/C [28] 26.3% | viability, T/C (second compound 1 µM, first compound 0.00316 µM) 97.1% | viability, T/C (second compound 1 µM, first compound 0.01 µM) 64.2% | viability, T/C [31] 35.5% | viability, T/C [32] 21.9% | viability, T/C [33] 17.9% | viability, T/C [34] 24.3%
0.0174 µM: IC50 (second compound 1 µM)
0.0222 µM: IC50 (second compound 0.1 µM)
0.0193 µM: IC50 (second compound 0.01 µM)
